What was measured:
Plasmodium falciparum [1] = test: Antimalarial activity against atovaquone-resistant Plasmodium falciparum Tm90-C2B infected in human erythrocytes by SYBR green 1-based fluorescence assay; type: functional, organism-based
Plasmodium falciparum [2] = test: Antimalarial activity against multidrug-resistant Plasmodium falciparum Dd2 infected in human erythrocytes by SYBR green 1-based fluorescence assay; type: functional, organism-based
Plasmodium falciparum [3] = test: Antimalarial activity against chloroquine-sensitive Plasmodium falciparum D6 infected in human erythrocytes by SYBR green 1-based fluorescence assay; type: functional, organism-based
HepG2 = test: Cytotoxicity against human HepG2 cells measured after 24 to 36 hrs by resazurin dye based fluorescence assay; type: cell-based
[4] = Selectivity index, ratio of IC50 for human HepG2 cells to IC50 for chloroquine-sensitive Plasmodium falciparum D6 infected in human erythrocytes; type: toxicity, cell-based; conditions: read-out: Ratio IC50
Plasmodium falciparum [5] = test: Antimalarial activity against multidrug-resistant Plasmodium falciparum 7G8 infected in human erythrocytes by SYBR green 1-based fluorescence assay; type: functional, organism-based

CCN(CC)CCCOc1ccc2c(=O)c3c(F)cc(F)cc3[nH]c2c1
IC50 (Plasmodium falciparum [1]): 705 nM | IC50 (Plasmodium falciparum [2]): 7.8 nM | IC50 (Plasmodium falciparum [3]): 32 nM | IC50 (HepG2): 38600 nM | selectivity ratio [4]: 1210 | IC50 (Plasmodium falciparum [5]): 44 nM

CCN(CC)CCOc1ccc2c(=O)c3ccc(Cl)c(Cl)c3[nH]c2c1
IC50 (Plasmodium falciparum [1]): > 2500 nM | IC50 (Plasmodium falciparum [2]): 2440 nM | IC50 (Plasmodium falciparum [3]): 749 nM | IC50 (HepG2): 46000 nM | selectivity ratio [4]: 61 | IC50 (Plasmodium falciparum [5]): > 2500 nM

CCN(CC)CCOc1ccc2c(=O)c3ccc(Cl)cc3n(CCN(CC)CC)c2c1
IC50 (Plasmodium falciparum [1]): 71 nM | IC50 (Plasmodium falciparum [2]): 77 nM | IC50 (Plasmodium falciparum [3]): 49 nM | IC50 (HepG2): > 40000 nM | selectivity ratio [4]: > 816 | IC50 (Plasmodium falciparum [5]): 86 nM

CCCN(CCC)CCOc1ccc2c(=O)c3ccc(C(F)(F)F)cc3[nH]c2c1
IC50 (Plasmodium falciparum [1]): 1540 nM | IC50 (Plasmodium falciparum [2]): 0.44 nM | IC50 (Plasmodium falciparum [3]): 26 nM | IC50 (HepG2): > 100000 nM | selectivity ratio [4]: > 3850 | IC50 (Plasmodium falciparum [5]): 5.6 nM

CC(C)(C)NCCCOc1ccc2c(=O)c3cc(Cl)c(Cl)cc3[nH]c2c1
IC50 (Plasmodium falciparum [1]): 551 nM | IC50 (Plasmodium falciparum [2]): 589 nM | IC50 (Plasmodium falciparum [3]): 123 nM | IC50 (HepG2): 6100 nM | selectivity ratio [4]: 49 | IC50 (Plasmodium falciparum [5]): 421 nM

CN(C)CCOc1ccc2c(=O)c3c(Cl)c(Cl)ccc3[nH]c2c1
IC50 (Plasmodium falciparum [1]): > 2500 nM | IC50 (Plasmodium falciparum [2]): 2000 nM | IC50 (Plasmodium falciparum [3]): 393 nM | IC50 (HepG2): > 100000 nM | selectivity ratio [4]: > 254 | IC50 (Plasmodium falciparum [5]): 1250 nM

CCCN(CCC)CCOc1ccc2[nH]c3cc(Cl)c(Cl)cc3c(=O)c2c1
IC50 (Plasmodium falciparum [1]): 58 nM | IC50 (Plasmodium falciparum [2]): 17 nM | IC50 (Plasmodium falciparum [3]): 26 nM | IC50 (HepG2): > 100000 nM | selectivity ratio [4]: > 3850 | IC50 (Plasmodium falciparum [5]): 14 nM

CCN(CC)CCOc1ccc2c(=O)c3cc(Cl)cc(Cl)c3[nH]c2c1
IC50 (Plasmodium falciparum [1]): > 2500 nM | IC50 (Plasmodium falciparum [2]): > 2500 nM | IC50 (Plasmodium falciparum [3]): 928 nM | IC50 (HepG2): 35000 nM | selectivity ratio [4]: 38 | IC50 (Plasmodium falciparum [5]): 1290 nM

CCCN(CCC)CCOc1ccc2[nH]c3cc(Cl)cc(OC)c3c(=O)c2c1
IC50 (Plasmodium falciparum [1]): 96 nM | IC50 (Plasmodium falciparum [2]): 11 nM | IC50 (Plasmodium falciparum [3]): 30 nM | IC50 (HepG2): 36800 nM | selectivity ratio [4]: 1220 | IC50 (Plasmodium falciparum [5]): 32 nM

CCN(CC)CCOc1ccc2c(=O)c3cc(F)c(OC)cc3[nH]c2c1
IC50 (Plasmodium falciparum [1]): 622 nM | IC50 (Plasmodium falciparum [2]): 448 nM | IC50 (Plasmodium falciparum [3]): 156 nM | IC50 (HepG2): > 200000 nM | selectivity ratio [4]: > 1280 | IC50 (Plasmodium falciparum [5]): 533 nM

O=c1c2ccc(OCCN3CCOCC3)cc2[nH]c2ccc(Cl)c(Cl)c12
IC50 (Plasmodium falciparum [1]): 196 nM | IC50 (Plasmodium falciparum [2]): 38 nM | IC50 (Plasmodium falciparum [3]): 65 nM | IC50 (HepG2): > 100000 nM | selectivity ratio [4]: > 1540 | IC50 (Plasmodium falciparum [5]): 273 nM

CCN(CC)CCNc1ccc2c(=O)c3cc(F)c(OC)cc3[nH]c2c1
IC50 (Plasmodium falciparum [1]): 1510 nM | IC50 (Plasmodium falciparum [2]): 1170 nM | IC50 (Plasmodium falciparum [3]): 526 nM | IC50 (HepG2): 126000 nM | selectivity ratio [4]: 239 | IC50 (Plasmodium falciparum [5]): 1300 nM

CCCN(CCC)CCOc1ccc2[nH]c3cc(OC)cc(Cl)c3c(=O)c2c1
IC50 (Plasmodium falciparum [1]): 558 nM | IC50 (Plasmodium falciparum [2]): 92 nM | IC50 (Plasmodium falciparum [3]): 79 nM | IC50 (HepG2): > 100000 nM | selectivity ratio [4]: > 1270 | IC50 (Plasmodium falciparum [5]): 288 nM

CCN(CC)CCOc1ccc2c(=O)c3cc(Cl)c(Cl)cc3[nH]c2c1
IC50 (Plasmodium falciparum [1]): 507 nM | IC50 (Plasmodium falciparum [2]): 132 nM | IC50 (Plasmodium falciparum [3]): 44 nM | IC50 (HepG2): > 100000 nM | selectivity ratio [4]: > 2270 | IC50 (Plasmodium falciparum [5]): 73 nM

O=c1c2ccc(OCCCCl)cc2[nH]c2ccc(Cl)cc12
IC50 (Plasmodium falciparum [1]): 371 nM | IC50 (Plasmodium falciparum [2]): 38 nM | IC50 (Plasmodium falciparum [3]): 24 nM | IC50 (HepG2): > 100000 nM | selectivity ratio [4]: > 4170 | IC50 (Plasmodium falciparum [5]): 51 nM

CCCCNCCCOc1ccc2c(=O)c3cc(Cl)c(Cl)cc3[nH]c2c1
IC50 (Plasmodium falciparum [1]): 177 nM | IC50 (Plasmodium falciparum [2]): 145 nM | IC50 (Plasmodium falciparum [3]): 36 nM | IC50 (HepG2): 75200 nM | selectivity ratio [4]: 2490 | IC50 (Plasmodium falciparum [5]): 161 nM

O=c1c2ccc(OCCCCl)cc2[nH]c2cc(Cl)c(Cl)cc12
IC50 (Plasmodium falciparum [1]): 945 nM | IC50 (Plasmodium falciparum [2]): 161 nM | IC50 (Plasmodium falciparum [3]): 179 nM | IC50 (HepG2): > 100000 nM | selectivity ratio [4]: > 558 | IC50 (Plasmodium falciparum [5]): 2330 nM

CCCN(CCC)CCOc1ccc2[nH]c3ccc(Cl)c(Cl)c3c(=O)c2c1
IC50 (Plasmodium falciparum [1]): 274 nM | IC50 (Plasmodium falciparum [2]): 17 nM | IC50 (Plasmodium falciparum [3]): 99 nM | IC50 (HepG2): 12700 nM | selectivity ratio [4]: 128 | IC50 (Plasmodium falciparum [5]): 32 nM
